Drawing on patent US20020156236A1, “Binding sites for phosphotyrosine binding domains” (priority 1995, published 2002), this text covers IC50 for 8 compounds.

Each structure is given as a SMILES string. Where a SMILES comes first, the peptide text is derived from it.

The target in this test is T1, PTB domain/c-erbB2 binding (GST-PTB domain of SHC; c-erbB2 from SKBR3 lysate) (Homo sapiens, UniProt P29353).
T1 construct: GST-PTB domain fusion proteins were expressed from recombinant baculovirus in sf9 cells; made in house; host or cells: Sf9 cells (recombinant baculovirus) for GST-PTB; c-erbB2 endogenous in SKBR3 cell lysate
T1 sequence (P29353 156-341): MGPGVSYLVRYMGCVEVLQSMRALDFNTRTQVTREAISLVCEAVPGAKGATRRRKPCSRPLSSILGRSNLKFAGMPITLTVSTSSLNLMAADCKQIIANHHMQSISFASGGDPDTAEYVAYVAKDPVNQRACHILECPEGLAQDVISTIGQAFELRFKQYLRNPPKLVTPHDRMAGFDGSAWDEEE
The experiment in a line: biochemical. The note with it: Inhibition (relative inhibition scale of IC50).
In turn, `CC(C)C[C@H](NC(=O)[C@H](CC(N)=O)NC(=O)[C@H](C)NC(=O)[C@H](Cc1ccccc1)NC(=O)[C@H](C)NC(=O)[C@@H]1CCCN1C(=O)[C@H](CO)NC(=O)[C@H](Cc1ccccc1)NC(=O)[C@H](C)NC(=O)[C@@H]1CCCN1)C(=O)N[C@@H](Cc1ccc(O)cc1)C(=O)N[C@@H](Cc1ccc(OP(=O)(O)O)cc1)C(=O)N[C@@H](Cc1c[nH]c2ccccc12)C(=O)N[C@@H](CC(=O)O)C(=O)N[C@@H](CCC(N)=O)C(=O)N[C@@H](CC(N)=O)C(=O)N[C@@H](CO)C(=O)N[C@@H](CO)C(=O)N[C@@H](CCC(=O)O)C(=O)N[C@@H](CCC(N)=O)C(=O)NCC(=O)O` [PAFSPAFANLY (pY) WDQNSSEQG, PAFSPAFANLY(pY)WDQNSSEQG] (HELM PEPTIDE1{P.A.F.S.P.A.F.A.N.L.Y.[O=C([C@H](Cc1ccc(OP(=O)(O)O)cc1)N[*:1])[*:2]].W.D.Q.N.S.S.E.Q.G}$$$$V2.0) showed an IC50 of 5 to 50 µM.

In the case of `CC(C)C[C@H](NC(=O)[C@H](CC(N)=O)NC(=O)[C@H](CC(=O)O)NC(=O)[C@H](Cc1ccccc1)NC(=O)[C@H](C)NC(=O)[C@@H]1CCCN1C(=O)[C@H](CO)NC(=O)[C@H](Cc1ccccc1)NC(=O)[C@H](C)NC(=O)[C@@H]1CCCN1)C(=O)N[C@@H](Cc1ccccc1)C(=O)N[C@@H](Cc1ccc(O)cc1)C(=O)N[C@@H](Cc1ccc(OP(=O)(O)O)cc1)C(=O)N[C@@H](Cc1c[nH]c2ccccc12)C(=O)N[C@@H](CC(=O)O)C(=O)N[C@@H](CCC(N)=O)C(=O)N[C@@H](CC(N)=O)C(=O)N[C@@H](CO)C(=O)N[C@@H](CO)C(=O)N[C@@H](CCC(=O)O)C(=O)N[C@@H](CCC(N)=O)C(=O)NCC(=O)O` [PAFSPAFDNLFY (pY) WDQNSSEQG] (HELM PEPTIDE1{P.A.F.S.P.A.F.D.N.L.F.Y.[O=C([C@H](Cc1ccc(OP(=O)(O)O)cc1)N[*:1])[*:2]].W.D.Q.N.S.S.E.Q.G}$$$$V2.0), the IC50 was in the range of 0.5 to 5 µM.

For the compound `CC(C)C[C@H](NC(=O)[C@H](CC(=O)O)NC(=O)[C@H](CC(=O)O)NC(=O)[C@H](Cc1ccccc1)NC(=O)[C@H](C)NC(=O)[C@@H]1CCCN1C(=O)[C@H](CO)NC(=O)[C@H](Cc1ccccc1)NC(=O)[C@H](C)NC(=O)[C@@H]1CCCN1)C(=O)N[C@@H](Cc1ccc(O)cc1)C(=O)N[C@@H](Cc1ccc(OP(=O)(O)O)cc1)C(=O)N[C@@H](Cc1c[nH]c2ccccc12)C(=O)N[C@@H](CC(=O)O)C(=O)N[C@@H](CCC(N)=O)C(=O)N[C@@H](CC(N)=O)C(=O)N[C@@H](CO)C(=O)N[C@@H](CO)C(=O)N[C@@H](CCC(=O)O)C(=O)N[C@@H](CCC(N)=O)C(=O)NCC(=O)O` [PAFSPAFDDLY (pY) WDQNSSEQG] (HELM PEPTIDE1{P.A.F.S.P.A.F.D.D.L.Y.[O=C([C@H](Cc1ccc(OP(=O)(O)O)cc1)N[*:1])[*:2]].W.D.Q.N.S.S.E.Q.G}$$$$V2.0), the IC50 was greater than 50 µM.

Consider `CC(C)C[C@H](NC(=O)[C@H](CC(N)=O)NC(=O)[C@H](CC(=O)O)NC(=O)[C@H](Cc1ccccc1)NC(=O)[C@H](C)NC(=O)[C@@H]1CCCN1C(=O)[C@H](CO)NC(=O)[C@H](Cc1ccccc1)NC(=O)[C@H](C)NC(=O)[C@@H]1CCCN1)C(=O)N[C@@H](Cc1ccc(O)cc1)C(=O)N[C@@H](Cc1ccc(OP(=O)(O)O)cc1)C(=O)N[C@@H](C)C(=O)N[C@@H](CC(=O)O)C(=O)N[C@@H](CCC(N)=O)C(=O)N[C@@H](CC(N)=O)C(=O)N[C@@H](CO)C(=O)N[C@@H](CO)C(=O)N[C@@H](CCC(=O)O)C(=O)N[C@@H](CCC(N)=O)C(=O)NCC(=O)O` [PAFSPAFDNLY (pY) ADQNSSEQG] (HELM PEPTIDE1{P.A.F.S.P.A.F.D.N.L.Y.[O=C([C@H](Cc1ccc(OP(=O)(O)O)cc1)N[*:1])[*:2]].A.D.Q.N.S.S.E.Q.G}$$$$V2.0), for which the IC50 was greater than 50 µM.

With `CC(C)C[C@H](NC(=O)[C@H](CC(N)=O)NC(=O)[C@H](CC(=O)O)NC(=O)[C@H](Cc1ccccc1)NC(=O)[C@H](C)NC(=O)[C@@H]1CCCN1C(=O)[C@H](CO)NC(=O)[C@H](Cc1ccccc1)NC(=O)[C@H](C)NC(=O)[C@@H]1CCCN1)C(=O)N[C@@H](Cc1ccc(O)cc1)C(=O)N[C@@H](Cc1ccc(OP(=O)(O)O)cc1)C(=O)N[C@@H](Cc1c[nH]c2ccccc12)C(=O)N[C@@H](C)C(=O)N[C@@H](CCC(N)=O)C(=O)N[C@@H](CC(N)=O)C(=O)N[C@@H](CO)C(=O)N[C@@H](CO)C(=O)N[C@@H](CCC(=O)O)C(=O)N[C@@H](CCC(N)=O)C(=O)NCC(=O)O` [PAFSPAFDNLY (pY) WAQNSSEQG, PAFSPAFDNLY(pY)WAQNSSEQG] (HELM PEPTIDE1{P.A.F.S.P.A.F.D.N.L.Y.[O=C([C@H](Cc1ccc(OP(=O)(O)O)cc1)N[*:1])[*:2]].W.A.Q.N.S.S.E.Q.G}$$$$V2.0), the IC50 was in the range of 0.05 to 0.5 µM.

In the case of `CC(C)C[C@H](NC(=O)[C@H](CC(N)=O)NC(=O)[C@H](CC(=O)O)NC(=O)[C@H](Cc1ccccc1)NC(=O)[C@H](C)NC(=O)[C@@H]1CCCN1C(=O)[C@H](CO)NC(=O)[C@H](Cc1ccccc1)NC(=O)[C@H](C)NC(=O)[C@@H]1CCCN1)C(=O)N[C@@H](Cc1ccc(O)cc1)C(=O)N[C@@H](Cc1ccc(OP(=O)(O)O)cc1)C(=O)N[C@@H](Cc1c[nH]c2ccccc12)C(=O)N[C@@H](CC(=O)O)C(=O)N[C@@H](CC(N)=O)C(=O)N[C@@H](CC(N)=O)C(=O)N[C@@H](CO)C(=O)N[C@@H](CO)C(=O)N[C@@H](CCC(=O)O)C(=O)N[C@@H](CCC(N)=O)C(=O)NCC(=O)O` [PAFSPAFDNLY (pY) WDNNSSEQG, PAFSPAFDNLY(pY)WDNNSSEQG] (HELM PEPTIDE1{P.A.F.S.P.A.F.D.N.L.Y.[O=C([C@H](Cc1ccc(OP(=O)(O)O)cc1)N[*:1])[*:2]].W.D.N.N.S.S.E.Q.G}$$$$V2.0), the IC50 was in the range of 0.5 to 5 µM.

Turning to `CC(C)C[C@H](NC(=O)[C@H](CC(N)=O)NC(=O)[C@H](CO)NC(=O)[C@H](Cc1ccccc1)NC(=O)[C@H](C)NC(=O)[C@@H]1CCCN1C(=O)[C@H](CO)NC(=O)[C@H](Cc1ccccc1)NC(=O)[C@H](C)NC(=O)[C@@H]1CCCN1)C(=O)N[C@@H](Cc1ccc(O)cc1)C(=O)N[C@@H](Cc1ccc(OP(=O)(O)O)cc1)C(=O)N[C@@H](Cc1c[nH]c2ccccc12)C(=O)N[C@@H](CC(=O)O)C(=O)N[C@@H](CCC(N)=O)C(=O)N[C@@H](CC(N)=O)C(=O)N[C@@H](CO)C(=O)N[C@@H](CO)C(=O)N[C@@H](CCC(=O)O)C(=O)N[C@@H](CCC(N)=O)C(=O)NCC(=O)O` [PAFSPAFSNLY (pY) WDQNSSEQG, PAFSPAFSNLY(pY)WDQNSSEQG] (HELM PEPTIDE1{P.A.F.S.P.A.F.S.N.L.Y.[O=C([C@H](Cc1ccc(OP(=O)(O)O)cc1)N[*:1])[*:2]].W.D.Q.N.S.S.E.Q.G}$$$$V2.0), the IC50 was 5 to 50 µM.

The compound `C[C@H](NC(=O)[C@@H]1CCCN1)C(=O)N[C@@H](Cc1ccccc1)C(=O)N[C@@H](CO)C(=O)N1CCC[C@H]1C(=O)N[C@@H](C)C(=O)N[C@@H](Cc1ccccc1)C(=O)N[C@@H](CC(=O)O)C(=O)N[C@@H](CC(N)=O)C(=O)N[C@@H](C)C(=O)N[C@@H](Cc1ccc(O)cc1)C(=O)N[C@@H](Cc1ccc(OP(=O)(O)O)cc1)C(=O)N[C@@H](Cc1c[nH]c2ccccc12)C(=O)N[C@@H](CC(=O)O)C(=O)N[C@@H](CCC(N)=O)C(=O)N[C@@H](CC(N)=O)C(=O)N[C@@H](CO)C(=O)N[C@@H](CO)C(=O)N[C@@H](CCC(=O)O)C(=O)N[C@@H](CCC(N)=O)C(=O)NCC(=O)O` [PAFSPAFDNAY (pY) WDQNSSEQG, PAFSPAFDNAY(pY)WDQNSSEQG] (HELM PEPTIDE1{P.A.F.S.P.A.F.D.N.A.Y.[O=C([C@H](Cc1ccc(OP(=O)(O)O)cc1)N[*:1])[*:2]].W.D.Q.N.S.S.E.Q.G}$$$$V2.0) came in with an IC50 of 0.5 to 5 µM.
